Entries after “also recorded” stand apart in the source; their conditions may differ.
Tested on: GL261 tumor bearing mice
Test: GL261 glioma model: tumor lysate vaccine +/- antagonist, tumor growth by imaging and survival
Format: in vivo, C57BL/6 mice
Details: for Tumor growth: tumor lysate vaccine + antagonist vs tumor lysate alone or saline, weekly imaging; for Survival: GL261 glioma model, tumor lysate vaccine + antagonist
Experimental: FIGS. 4A-4C. FIG. 4A) GL261 tumor bearing mice were inoculated with 50 μg of antagonist 6059 one day prior to vaccination with tumor lysate (65 μg)+/−the antagonist 6059 (50 μg). FIG. 4B) Mice were imaged weekly for tumor growth. The following groups were studied: saline (1), tumor lysate (2), and tumor lysate+6059 (3). FIG. 4C) Percent survival post inoculation for saline (1), tumor lysate (2), and tumor lysate+6059 (3) groups.
FIGS. 5A-5B. FIG. 5A) GL261 tumor bearing mice were inoculated with 10 μg of 6059 on day 2 into the tumor site then with 50 μg of antagonist 6059 one day prior to vaccination with tumor lysate (65 μg)+the antagonist 6059 (50 μg). FIG. 5B) Mice were imaged weekly for tumor growth. The following groups were studied: saline (1), tumor lysate+6059 (2), and CNS+tumor lysate+6059 (3) groups.
Whether vaccination with CD200R antagonists could enhance the survival of tumor-bearing mice was also studied. […] GL261 tumor bearing mice were vaccinated weekly with saline, tumor lysates (TL) or tumor lysates+an antagonist (4004, 4013, 6059).
Tumor-bearing mice were inoculated in the brain with 10 μg of the inhibitor 6059 at the same coordinates at which the tumor was injected two days previously. This was followed by weekly injections of tumor lysate+inhibitor (FIGS. 5A-5B).
Tumors were implanted into female C57BL/6 mice (6-8 wk old) (Jackson Laboratory) and maintained in a pathogen-free facility according to the guidelines of the University of Minnesota Animal Care and Use Committee. The GL261 orthotopic transplant model was established in C57BL/6 (B6) mice by inoculation with 15,000 GL261-Luc^+ cells in 1 μl of saline. Tumors were implanted stereotactically into the right striatum; coordinates were 2.5 mm lateral, 0.5 mm anterior of bregma, and 3 mm deep from the cortical surface of the brain^19. Tumor burden was determined by bioluminescent imaging. Light emitted from the tumors was quantified using Living Image software (Xenogen) and expressed as photons per second per centimeter squared per steradian (p/s/cm^2/sr). GL261 cells for tumor lysate vaccines were cultured in neural stem cell media consisting of DMEM/F12 (1:1) with L-glutamine, sodium bicarbonate, penicillin/streptomycin (100 U/ml), B27 and N2 supplements (Life Technologies), and 0.1 mg/ml Normocin (Invivogen). Cultures were maintained at 5% 02 and supplemented with 20 ng/ml EGF and FGF semiweekly (R&D Systems, Minneapolis, Minn.). […] Mice were euthanized when tumors reached 1000 mm^3. […] Tumor cells used to establish both models were cultured in DMEM containing 10% FBS, penicillin/streptomycin (100 U/ml), and 0.1 mg/ml Normocin (Invivogen) in atmospheric oxygen.
Tumor lysates were prepared by dissociating tumor cells with non-enzymatic dissociation solution (Sigma). Cells were then washed 3 times with PBS, re-suspended in 500 μL PBS, and frozen overnight at −80° C. Cells were then lysed by five freeze/thaw cycles of freezing in liquid nitrogen and thawing in a 55° C. water bath. Cell debris was pelleted by centrifugation at 14,000 RCF, and the protein concentration of the supernatant was determined using a Bradford assay. Lysates were stored at −80° C. until use. Each vaccine was prepared on the day of vaccination and consisted of 65 μg of protein tumor lysate and 10 μg Poly:ICLC (Oncovir, Inc.), with or without 50 μg of the 6059 peptide antagonist, in a final volume of 100 μL injected intradermally in the back of the neck. For survival studies, vaccines were administered weekly starting three days post-tumor implantation for a total of 6 doses. In T cell priming experiments, CD8 T-cell priming experiments, animals were vaccinated intradermally on four consecutive days with 100 μg Ovalbumin (OVA) and 10 μg Poly:ICLC, and once more on day eleven^19.

How did the “Tumor growth after inoculation of the inhibitor into the CNS tumor site” value (GL261, 10 μg in the brain on day 2, then tumor lysate + inhibitor) turn out when NTIGDGGCY [Antagonist 6059] was run?
The value was “Tumor growth was delayed; also recorded: further suppressed tumor growth”.

And the “Survival enhancement / survival benefit” value (GL261, tumor lysate + antagonist)?
Its value is 30%.

What about the Tumor growth (GL261) of the same sequence?
The Tumor growth was “tumors grow faster in mice vaccinated with saline or tumor lysate alone compared to mice vaccinated with tumor lysate plus an antagonist; also recorded: slowed tumor growth”.

And the Tumor growth (GL261, listed as CD200R antagonist)?
Its Tumor growth is “statistically significant inhibition of tumor growth”.

And the Survival?
Its Survival is “increased survival benefit; also recorded: enhancing survival”.

What about the Survival (listed as CD200R antagonist) of the same sequence?
Its Survival is “enhanced survival benefit”.

Source: patent US10576145B2, “CD200 inhibitors and methods of use thereof” (REGENTS OF THE UNIVERSITY OF MINNESOTA, priority 2014, dated 2020)
